Experiments:
P. acnes NCTC 737 [1] = assay: Disc diffusion assay (DDA), also supplemented; conditions: for DDA + salt & lipid: Example 8, single compound, salt and 1% (v/v) triolein;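 as to all read-outs here: paper disc carrying compound placed on inoculated Wilkins-Chalgren Anaerobe agar pH 6.0, with lipid or NaCl supplement where listed, anaerobic 37 °C for 72 h, inhibition zone diameter read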
Description: The propionibacteria were cultured and maintained on Wilkins-Chalgren Anaerobe Medium (agar and broth) at pH 6.0; all cultures were incubated anaerobically at 37° C. for 72 hours.
(d) Disc Diffusion Assay (DDA)
A sterile paper disc was impregnated with a sample of the test compound in a suitable solvent and 30 minutes allowed for the solvents to evaporate (where possible). The disc was then placed on an agar plate onto which the test micro-organism had been inoculated. The plate was then incubated under the conditions described above, following which it was examined visually for signs of bacterial growth. […] The diameter of this zone of “inhibition” was measured using a ProtoCOL™ automated zone sizer (Synbiosis, Cambridge, UK).
(f) Supplemented Disc Diffusion Assays
For assays using Propionibacterium spp. strains the supplements used in the examples below were lipid (either Tween™ 80 or triolein, both at 1% v/v) and sodium chloride (100 mM).

P. acnes NCTC 737 [2] = assay: Synergy disc diffusion assay (SDDA), also supplemented; conditions: for SL SDDA area increase / SL SDDA increase / SL SDDA with CSL / SL SDDA with CSPH: salt and lipid (1% (v/v) triolein); for SDDA area increase / SDDA increase: unsupplemented
S. aureus ATCC 29213 [3] = assay: as above; conditions: for SS SDDA area increase / SS SDDA increase / SS SDDA with CSL / SS SDDA with CSPH: salt and serum supplements; for SDDA area increase / SDDA increase: unsupplemented
S. aureus ATCC 29213 [4] = assay: Disc diffusion assay (DDA), also supplemented; conditions: Example 9; single compound; salt and serum
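For SS SDDA area increase in this document: disc diffusion on Mueller-Hinton agar at pH 7.2, aerobic incubation at 37 °C lasting 19-20 h, two compounds assessed jointly for combined antimicrobial effect.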
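For SS SDDA increase in this document: disc diffusion on Mueller-Hinton agar at pH 7.2, aerobic incubation at 37 °C lasting 19-20 h, two compounds assessed jointly for combined antimicrobial effect.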
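For SS SDDA with CSL in this document: disc diffusion on Mueller-Hinton agar at pH 7.2, aerobic incubation at 37 °C lasting 19-20 h, two compounds assessed jointly for combined antimicrobial effect.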
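For SS SDDA with CSPH in this document: disc diffusion on Mueller-Hinton agar at pH 7.2, aerobic incubation at 37 °C lasting 19-20 h, two compounds assessed jointly for combined antimicrobial effect.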

Row | Structure (SMILES) | DDA + salt & lipid (P. acnes NCTC 737 [1]) | SL SDDA area increase (P. acnes NCTC 737 [2]; quinone + CSL) [%] | SL SDDA increase (P. acnes NCTC 737 [2]; quinone + CSL) [mm] | SL SDDA with CSL (P. acnes NCTC 737 [2]; quinone + CSL) | SDDA area increase (P. acnes NCTC 737 [2]; quinone + CSL) [%] | SDDA increase (P. acnes NCTC 737 [2]; quinone + CSL) [mm] | SL SDDA area increase (P. acnes NCTC 737 [2]; quinone + CSPH) [%] | SL SDDA increase (P. acnes NCTC 737 [2]; quinone + CSPH) [mm] | SL SDDA with CSPH (P. acnes NCTC 737 [2]; quinone + CSPH) | SDDA area increase (P. acnes NCTC 737 [2]; quinone + CSPH) [%] | SDDA increase (P. acnes NCTC 737 [2]; quinone + CSPH) [mm] | DDA (P. acnes NCTC 737 [1]) | SDDA with CSL (P. acnes NCTC 737 [2]) | SDDA with CSPH (P. acnes NCTC 737 [2]) | SS SDDA area increase (S. aureus ATCC 29213 [3]; quinone + CSL) [%] | SS SDDA increase (S. aureus ATCC 29213 [3]; quinone + CSL) [mm] | SS SDDA with CSL (S. aureus ATCC 29213 [3]; quinone + CSL) | SDDA area increase (S. aureus ATCC 29213 [3]; quinone + CSL) [%] | SDDA increase (S. aureus ATCC 29213 [3]; quinone + CSL) [mm] | SS SDDA area increase (S. aureus ATCC 29213 [3]; quinone + CSPH) [%] | further results
1 | CC(C)(C)C1=CC(=O)C=CC1=O | 45.13 (±1.45) mm | 56.24 | 11.28 | 56.41 (±2.58) mm | 63.59 | 11.39 | 10.60 | 2.56 | 52.10 (±2.56) mm | 61.51 | 11.39 |  |  |  |  |  |  |  |  |  | 
2 | O=C1C=CC(=O)C(Cl)=C1 [2-chloro-1,4-benzoquinone] | 24.31 (±0.81) mm | 31.58 | 6.26 | 48.82 (±0.47) mm | 26.16 | 5.03 | 3.75 | 0.92 | 50.46 (±2.15) mm | 26.42 | 5.23 | 22.15 (±0.53) mm | 45.85 (±0.31) mm | 47.28 (±1.39) mm |  |  |  |  |  |  | 
3 | CCc1cc(O)ccc1O [2-ethyl-p-hydroquinone] | 33.74 (±1.69) mm | 31.58 | 6.26 | 48.82 (±0.47) mm | 33.02 | 6.26 | 11.07 | 2.67 | 52.21 (±0.18) mm | 44.00 | 8.41 |  |  |  | 41.05 | 4.74 | 30.00 (±2.47) mm | 151.18 | 14.23 | 68.40 | SS SDDA increase (S. aureus ATCC 29213 [3]; quinone + CSPH): 7.52 mm; SS SDDA with CSPH (S. aureus ATCC 29213 [3]; quinone + CSPH): 32.78 (±0.31) mm; SDDA area increase (S. aureus ATCC 29213 [3]; quinone + CSPH): 157.87%; SDDA increase (S. aureus ATCC 29213 [3]; quinone + CSPH): 14.74 mm; DDA + salt & serum (S. aureus ATCC 29213 [4]): 25.26 (±1.29) mm
4 | CC1=CC(=O)C=CC1=O [2-methyl-p-benzoquinone] | 35.18 (±1.24) mm | 37.19 | 7.29 | 49.85 (±3.20) mm | 47.88 | 8.82 | 18.59 | 4.41 | 53.95 (±1.16) mm | 38.80 | 7.49 | 33.74 (±1.52) mm | 49.64 (±0.99) mm | 49.54 (±0.81) mm |  |  |  |  |  |  | 
5 | Cc1cc(O)ccc1O [2-methyl-p-hydroquinone] | 35.18 (±4.06) mm | 35.49 | 6.98 | 49.54 (±0.81) mm | 24.46 | 4.72 | 17.67 | 4.20 | 53.74 (±1.75) mm | 24.24 | 4.82 |  |  |  | 90.18 | 10.20 | 37.11 (±1.11) mm | 112.09 | 11.76 | 74.72 | SS SDDA increase (S. aureus ATCC 29213 [3]; quinone + CSPH): 8.66 mm; SS SDDA with CSPH (S. aureus ATCC 29213 [3]; quinone + CSPH): 35.57 (±0.62) mm; SDDA area increase (S. aureus ATCC 29213 [3]; quinone + CSPH): 140.93%; SDDA increase (S. aureus ATCC 29213 [3]; quinone + CSPH): 14.23 mm; DDA + salt & serum (S. aureus ATCC 29213 [4]): 26.91 (±0.00) mm
